Where a SMILES comes first, the peptide text is derived from it. Where no end group is shown, it is not given here.

One assay deals with HLA-restricted target cells pulsed with peptide.
Test: not given
In kind it is cell-based, HLA-A*1101 transgenic mice.
Take LVTFLLLCGR [LASV GPC46–55]: the “% of Epitope response” value is reported as 147%.

For another assay, the target named is HLA-A*0201 (Homo sapiens, UniProt P04439, D140Y/D185E/D98H/E176V/E277Q/G131W/G231S/I119V/I121R/I166T/I218V/L300P/L318F/N151K/N90K/P208A/P217A/Q86G/Q94H/R138H/R169H/T345S). The assay can be described thus: biochemical. In kind it is binding.
`CC(C)C[C@H](NC(=O)[C@H](CC(C)C)NC(=O)[C@H](CC(N)=O)NC(=O)[C@H](CC(C)C)NC(=O)[C@H](CS)NC(=O)[C@H](Cc1c[nH]cn1)NC(=O)[C@H](CCCNC(=N)N)NC(=O)[C@H](CS)NC(=O)[C@H](CC(C)C)NC(=O)[C@@H](N)Cc1ccc(O)cc1)C(=O)O` [LCMV Z49–58] (H-YLCRHCLNLL-OH) returned a 50% inhibitory concentration (IC50) of 3.9 nM.

As for ALNIALVAV [JUNV GPC18–26], the IC50 turned out to be 79 nM.

On to AINIALIAV [SABV GPC18–26], for which the IC50 is 834 nM.

For the compound TVIKTLLEV [WWAV NP274–282], the IC50 came to 276 nM.

GLLQFIVFL [WWAV GPC42–50] had an IC50 below 0.05 nM.

AVYNFATCGI [LCMV GPC34–43]: half-maximal inhibition (IC50) was put at 137 nM.

In turn, AMPGVLSYV [MACV NP432–440] gave an IC50 of 8.4 nM.

In the case of ALNIALIAV [WWAV GPC18–26], the IC50 is 27 nM.

In turn, SIINHKFCNL [LASV GPC111–120] displayed an IC50 of 2120 nM.

With GLSQFTQTV [JUNV NP19–27], the half-maximal inhibitory concentration (IC50) turned out to be 30 nM.

As to LLPDALLFTL [SABV NP547–556], 77 nM corresponded to half-maximal inhibition (IC50).

Regarding GLLEWIFRA [SABV GPC142–150], the concentration for half-maximal inhibition (IC50) was 1.2 nM.

Regarding GLSQFTHTV [MACV NP19–27], 18 nM corresponded to half-maximal inhibition (IC50).

For the next assay, the target named is HLA-A*1101 (Homo sapiens, UniProt P04439, A114D/D185E/E176A/F33Y/L180Q/S129P/T187R). The assay can be described thus: biochemical. It counts as binding.
As for KCLNIMLGK [SABV Z64–72], the half-maximal inhibitory concentration (IC50) was found to be 678 nM.

In the case of SIQKNTIFK [MACV NP82–90], the IC50 came out at 5.5 nM.

Compound ATVKNVVLR [GTOV L1977–1985] displayed a concentration for half-maximal inhibition (IC50) of 54 nM.

Compound SSQRDTILK [SABV NP82–90] displayed an IC50 of 9.3 nM.

The compound LVTFLLLCGR [LASV GPC46–55] registered a concentration for half-maximal inhibition (IC50) above 5000 nM.

With RTAPPSLYGR [MACV Z27–36], the concentration for half-maximal inhibition (IC50) turned out to be 8.9 nM.

With STYYVHENK [SABV GPC90–98], 6 nM corresponded to half-maximal inhibition (IC50).

Turning to LVSFLLLAGR [LCMV GPC46–55], 70 nM corresponded to half-maximal inhibition (IC50).

FTNDSIISH [LCMV GPC112–120]: the half-maximal inhibitory concentration (IC50) is 38 nM.

Consider TTYLGPLSCK [LCMV Z24–33], for which it took 2.8 nM to reach half-maximal inhibition (IC50).

On to SSIIRSLPK [WWAV NP439–447], for which half-maximal inhibition (IC50) was put at 2.5 nM.

A further assay concerns peptide-pulsed JA2.1 cells.
Test: not given
It counts as cell-based, HLA-A*0201 transgenic mice.
Take GLLQFIVFL [WWAV GPC42–50]: the “Identified as CD8+ T cell epitope after rVACV infection” value is on record as “identified”.

A further assay relates to human JA2.1 cells infected with the appropriate rVACV.
Test: not given
Set-up: key to Natural processing in human APCs: +, Processed; +/−, weakly processed; −, not processed. In kind it is cell-based, HLA-A*0201 transgenic mice.
GLLQFIVFL [WWAV GPC42–50]: the “Natural processing in human APCs” value was “+” and the “Recognition of rVACV-infected human target cells by peptide-primed CD8+ T cells” value is recorded as “robust”.

The IC50 is the concentration that gives 50% inhibition.

Source of the values: article PMC2787016 (PLoS Pathogens, 2009).
